Test results from article PMC3383692, “Characterization of Plasmodium falciparum Adenylyl Cyclase-β and Its Role in Erythrocytic Stage Parasites” (PLoS ONE, 2012).
Where two headings read alike, the source gives them in different places. Blank lines part the entries; values can stand above or below the molecule they belong to.

Columns and labels:
[1] = target: T1, PfACβ (adenylyl cyclase-β) (Plasmodium falciparum, UniProt C0H4R1); experiment: radioactive two-column adenylyl cyclase assay with purified GST-PfACβ[…]-785; format: biochemical
T1 construct: gene PF3D7_0802600; GST-PfACβ1-785 (catalytic domains, AA 1–785)
T1 sequence (C0H4R1 1-785): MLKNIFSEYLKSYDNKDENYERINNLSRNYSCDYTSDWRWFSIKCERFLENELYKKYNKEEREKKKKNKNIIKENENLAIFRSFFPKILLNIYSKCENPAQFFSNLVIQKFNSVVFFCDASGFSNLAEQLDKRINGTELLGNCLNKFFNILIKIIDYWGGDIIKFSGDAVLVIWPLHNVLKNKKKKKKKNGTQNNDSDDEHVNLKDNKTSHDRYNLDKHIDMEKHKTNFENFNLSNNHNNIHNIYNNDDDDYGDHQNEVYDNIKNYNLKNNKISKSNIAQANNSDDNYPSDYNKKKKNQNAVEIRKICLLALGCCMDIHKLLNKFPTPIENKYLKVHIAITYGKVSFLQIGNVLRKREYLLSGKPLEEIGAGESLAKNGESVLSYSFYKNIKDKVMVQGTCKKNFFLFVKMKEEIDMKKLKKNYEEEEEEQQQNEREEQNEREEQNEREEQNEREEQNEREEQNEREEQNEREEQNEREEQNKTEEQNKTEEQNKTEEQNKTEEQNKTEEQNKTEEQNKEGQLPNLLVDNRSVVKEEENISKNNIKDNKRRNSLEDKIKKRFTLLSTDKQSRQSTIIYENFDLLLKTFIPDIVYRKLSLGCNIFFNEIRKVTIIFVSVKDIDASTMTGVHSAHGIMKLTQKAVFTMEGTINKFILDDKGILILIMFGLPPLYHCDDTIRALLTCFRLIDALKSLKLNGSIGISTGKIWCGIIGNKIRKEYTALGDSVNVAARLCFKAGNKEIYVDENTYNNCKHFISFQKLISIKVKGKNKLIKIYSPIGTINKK

[2] = target: T2, PfACα (Plasmodium falciparum, UniProt Q8I7A1); experiment: adenylyl cyclase activity in PfACα-expressing Hi5 cells, […] 2-CE; format: cell-based
T2 construct: gene ac1
T2 sequence (Q8I7A1 1-884): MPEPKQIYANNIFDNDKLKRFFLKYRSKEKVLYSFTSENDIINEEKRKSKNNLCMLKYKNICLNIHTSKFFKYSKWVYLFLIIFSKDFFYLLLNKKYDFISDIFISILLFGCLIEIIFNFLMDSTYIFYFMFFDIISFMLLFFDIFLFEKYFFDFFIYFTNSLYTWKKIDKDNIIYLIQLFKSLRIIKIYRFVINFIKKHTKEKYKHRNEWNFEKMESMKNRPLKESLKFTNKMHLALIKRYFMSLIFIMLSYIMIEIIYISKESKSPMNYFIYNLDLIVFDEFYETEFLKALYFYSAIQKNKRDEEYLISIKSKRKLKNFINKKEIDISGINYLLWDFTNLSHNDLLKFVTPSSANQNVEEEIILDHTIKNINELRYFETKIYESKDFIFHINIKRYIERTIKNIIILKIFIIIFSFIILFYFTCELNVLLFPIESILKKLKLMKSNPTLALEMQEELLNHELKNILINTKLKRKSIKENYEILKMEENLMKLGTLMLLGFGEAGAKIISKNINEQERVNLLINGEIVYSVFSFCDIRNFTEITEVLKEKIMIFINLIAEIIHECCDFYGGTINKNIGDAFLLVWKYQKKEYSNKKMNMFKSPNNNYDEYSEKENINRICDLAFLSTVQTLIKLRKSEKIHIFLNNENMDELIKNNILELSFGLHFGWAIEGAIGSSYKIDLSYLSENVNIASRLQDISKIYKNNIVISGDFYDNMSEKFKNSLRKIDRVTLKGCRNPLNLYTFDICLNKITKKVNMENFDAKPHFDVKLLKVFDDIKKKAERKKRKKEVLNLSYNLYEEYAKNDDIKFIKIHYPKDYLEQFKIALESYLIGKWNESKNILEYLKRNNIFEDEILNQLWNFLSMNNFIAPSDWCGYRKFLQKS

[3] = substrate: Nc1ncnc2c1ncn2[C@@H]1O[C@H](COP(=O)(O)OP(=O)(O)OP(=O)(O)O)[C@@H](O)[C@H]1O; experiment: Michaelis-Menten kinetics (Km), adenylyl cyclase assay with purified enzyme; format: biochemical, Plasmodium falciparum; details: Mn2+ active site; lack of cooperative binding of substrate

IC50 ([1]; read-out: IC50): 5 µM
Molecule: CC(Sc1nc2ccccc2[nH]1)C(=O)N/N=C/c1cc(Br)ccc1O (racemic) [KH7]

Molecule: C[C@]12CC[C@@H]3c4cc(O)c(O)cc4CC[C@H]3[C@@H]1CC[C@@H]2O [2-CE, 2-hydroxyestradiol]
adenylyl cyclase activity in PfACα-expressing Hi5 cells, 50 μM 2-CE [2]: although PfACα adenylyl cyclase activity was inhibited by 2-CE, it was largely insensitive to KH7 (Figure 4C)
IC50 [1]: 8 µM

Molecule: KH7.15
IC50 ([1]; read-out: IC50): 150 µM

B1: PfACβ (adenylyl cyclase-β) (Plasmodium falciparum 3D7) (protein)
chain: MLKNIFSEYLKSYDNKDENYERINNLSRNYSCDYTSDWRWFSIKCERFLENELYKKYNKEEREKKKKNKNIIKENENLAIFRSFFPKILLNIYSKCENPAQFFSNLVIQKFNSVVFFCDASGFSNLAEQLDKRINGTELLGNCLNKFFNILIKIIDYWGGDIIKFSGDAVLVIWPLHNVLKNKKKKKKKNGTQNNDSDDEHVNLKDNKTSHDRYNLDKHIDMEKHKTNFENFNLSNNHNNIHNIYNNDDDDYGDHQNEVYDNIKNYNLKNNKISKSNIAQANNSDDNYPSDYNKKKKNQNAVEIRKICLLALGCCMDIHKLLNKFPTPIENKYLKVHIAITYGKVSFLQIGNVLRKREYLLSGKPLEEIGAGESLAKNGESVLSYSFYKNIKDKVMVQGTCKKNFFLFVKMKEEIDMKKLKKNYEEEEEEQQQNEREEQNEREEQNEREEQNEREEQNEREEQNEREEQNEREEQNEREEQNKTEEQNKTEEQNKTEEQNKTEEQNKTEEQNKTEEQNKEGQLPNLLVDNRSVVKEEENISKNNIKDNKRRNSLEDKIKKRFTLLSTDKQSRQSTIIYENFDLLLKTFIPDIVYRKLSLGCNIFFNEIRKVTIIFVSVKDIDASTMTGVHSAHGIMKLTQKAVFTMEGTINKFILDDKGILILIMFGLPPLYHCDDTIRALLTCFRLIDALKSLKLNGSIGISTGKIWCGIIGNKIRKEYTALGDSVNVAARLCFKAGNKEIYVDENTYNNCKHFISFQKLISIKVKGKNKLIKIYSPIGTINKK
notes: GST-PfACβ1-785 (catalytic domains, AA 1–785)
Km [3]: 570 µM
